Data on 23 molecules can be found in patent publication US8247573B2, “Substituted N-(2-mercaptopyridin-3-yl)amides as KCNQ2/3 modulators” (Gruenenthal GmbH, priority 2009, dated 2012).

This experiment addresses T1, KCNQ2/3 channels (Homo sapiens, UniProt O43525+O43526).
T1 construct: expressed in transfected cells; host or cells: CHO-K1
The experiment can be described thus: Fluorescence assay using a voltage-sensitive dye (fluorimetry). Format: cell-based. The note with it: CHO-K1 cells expressing KCNQ2/3; for Emax: relative to retigabine = 100%, negative values = antagonistic, read-out: Fluorimetry % efficacy (I/EC50, retigabine = 100%); for EC50: agonistic activity. Here is the method:
Pharmacological Experiments Fluorescence Assay Using a Voltage-Sensitive Dye
Human CHO-K1 cells expressing KCNQ2/3 channels are cultivated adherently at 37° C., 5% CO2 and 95% humidity in cell culture bottles (e.g. 80 cm^2 TC flasks, Nunc) with DMEM-high glucose (Sigma Aldrich, D7777) including 10% FCS (PAN Biotech, e.g. 3302-P270521) or alternatively MEM Alpha Medium (1×, liquid, Invitrogen, #22571), 10% foetal calf serum (FCS) (Invitrogen, #10270-106, heat-inactivated) and the necessary selection antibiotics.
Before being seeded out for the measurements, the cells are washed with a 1×DPBS buffer without Ca^2+/Mg^2+ (e.g. Invitrogen, #14190-094) and detached from the bottom of the culture vessel by means of Accutase (PAA Laboratories, #L11-007) (incubation with Accutase for 15 min at 37° C.). The cell count then present is determined using a CASY™ cell counter (TCC model, Schärfe System) in order subsequently to apply 20,000 to 30,000 cells/well/100 μl of the described nutrient medium, depending on density optimisation for the individual cell line, to 96-well measuring plates of the Corning™ CellBIND™ type (flat clear-bottom black polystyrene microplates, #3340). Incubation is then carried out for one hour at room temperature, without gassing or adjusting the humidity, followed by incubation for 24 hours at 37° C., 5% CO2 and 95% humidity.
The voltage-sensitive fluorescent dye from the Membrane Potential Assay Kit (Red™ bulk format part R8123 for FLIPR, MDS Analytical Technologies™) is prepared by dissolving the contents of a vessel of Membrane Potential Assay Kit Red Component A in 200 ml of extracellular buffer (ES buffer, 120 mM NaCl, 1 mM KCl, 10 mM HEPES, 2 mM CaCl2, 2 mM MgCl2, 10 mM glucose; pH 7.4). After removal of the nutrient medium, the cells are washed with 200 μl of ES buffer, then covered with a layer of 100 μl of the dye solution prepared above and incubated for 45 min at room temperature with exclusion of light.
The fluorescence measurements are carried out with a BMG Labtech FLUOstar™, BMG Labtech NOVOstar™ or BMG Labtech POLARstar™ instrument (525 nm excitation, 560 nm emission, bottom-read mode). After incubation of the dye, 50 μl of the substances to be tested in the desired concentrations, or 50 μl of ES buffer for control purposes, are introduced into separate cavities of the measuring plate and incubated for 30 min at room temperature whilst being shielded from light. The fluorescence intensity of the dye is then measured for 5 min and the fluorescence value F1 of each well is thus determined at a given, constant time. 15 μl of a […] KCl solution […] are then added to each well. The change in fluorescence is subsequently measured until all relevant measured values have been obtained (mainly […]). At a given time after KCl application, a fluorescence value F2 is determined, in this case at the time of the fluorescence peak.
For calculation, the fluorescence intensity F2 is compared with the fluorescence intensity F1, and the agonistic activity of the target compound on the potassium channel is determined therefrom. F2 and F1 are calculated as follows: […]
In order to determine whether a substance has an agonistic activity,
[formula] is determined by adding to the reaction batch only the buffer solution instead of the substance to be tested, determining the value F1K of the fluorescence intensity, adding the potassium ions as described above and measuring a value F2K of the fluorescence intensity. Then F2K and F1K are calculated as follows: […]
A substance has an agonistic activity on the potassium channel if
Independently of the comparison of
[formula] it is also possible to conclude that a target compound has an agonistic activity if an increase in
[formula] is to be observed as the dosage of the target compound increases.
Calculations of EC50 values are carried out with the aid of Prism v4.0 software (GraphPad Softwares™).

As to `O=C(Nc1cccnc1SCCS(=O)(=O)c1cccc(C(F)(F)F)c1)C1CCCOC1` (stereo not shown) [Example 38, N-[2-[2-[[3-(Trifluoromethyl)phenyl]sulfonyl]-ethylsulfanyl]-pyridin-3-yl]-tetrahydropyrane-3-carboxylic acid amide], the Emax is 35%.

Broadly, the EC50 is the concentration that produces a half-maximal response. As for `O=C(CC1CCCCO1)Nc1cccnc1SCCS(=O)(=O)c1cccc(C(F)(F)F)c1` (stereo not shown) [Example 39, 2-Tetrahydropyran-2-yl-N-[2-[2-[[3-(trifluoromethyl)phenyl]sulfonyl]-ethylsulfanyl]-pyridin-3-yl]acetamide], the midpoint of the response, the EC50, lay at 363 nM and the Emax is 139%.

For the molecule `O=C(Cc1ccccn1)Nc1cccnc1SCCS(=O)(=O)c1cccc(C(F)(F)F)c1` [Example 60, 2-Pyridin-2-yl-N-[2-[2-[[3-(trifluoromethyl)phenyl]sulfonyl]-ethylsulfanyl]-pyridin-3-yl]acetamide], the 50% effective concentration (EC50) worked out at 1020 nM and the Emax came out at 101%.

Regarding `O=C(CC1CCCCCC1)Nc1cccnc1SCCS(=O)(=O)c1cccc(C(F)(F)F)c1` [Example 49, 2-Cycloheptyl-N-[2-[2-[[3-(trifluoromethyl)phenyl]sulfonyl]-ethylsulfanyl]-pyridin-3-yl]acetamide], the EC50 came to 19 nM and the Emax amounted to 108%.

Regarding `O=C(Nc1cccnc1SCCS(=O)(=O)c1cccc(C(F)(F)F)c1)c1ccc(Cl)nc1` [Example 35, 6-Chloro-N-[2-[2-[[3-(trifluoromethyl)phenyl]sulfonyl]-ethylsulfanyl]-pyridin-3-yl]-pyridine-3-carboxylic acid amide], the Emax turned out to be 43%.

Regarding `O=C(Cc1cccnc1)Nc1cccnc1SCCS(=O)(=O)c1cccc(C(F)(F)F)c1` [Example 46, 2-Pyridin-3-yl-N-[2-[2-[[3-(trifluoromethyl)phenyl]sulfonyl]-ethylsulfanyl]-pyridin-3-yl]acetamide], the Emax stood at 50%.

As for `O=C(Nc1cccnc1SCCS(=O)(=O)c1cccc(C(F)(F)F)c1)C(F)(F)C1CCCCC1` [Example 68, 2-Cyclohexyl-2,2-difluoro-N-[2-[2-[[3-(trifluoromethyl)phenyl]sulfonyl]-ethylsulfanyl]-pyridin-3-yl]acetamide], the concentration giving a half-maximal response (EC50) was 22 nM and the Emax was 79%.

By IC50 is commonly meant the concentration that inhibits the measured activity by half. Read a high IC50 as weaker potency. As to `COc1ccccc1CC(=O)Nc1cccnc1SCCS(=O)(=O)c1cccc(C(F)(F)F)c1` [Example 9, 2-(2-Methoxyphenyl)-N-[2-[2-[[3-(trifluoromethyl)phenyl]sulfonyl]-ethylsulfanyl]-pyridin-3-yl]acetamide], the Emax was -45%. This molecule also gave a half-maximal inhibitory concentration (IC50) (antagonistic activity) of 192 nM.

As for `O=C(Nc1cccnc1SCCS(=O)(=O)c1cccc(C(F)(F)F)c1)c1ccccc1O` [Example 53, 2-Hydroxy-N-[2-[2-[[3-(trifluoromethyl)phenyl]sulfonyl]-ethylsulfanyl]-pyridin-3-yl]benzamide], the Emax was 27.4%.

`O=C(CCCc1ccccc1)Nc1cccnc1SCCS(=O)(=O)c1cccc(C(F)(F)F)c1` [Example 25, 4-Phenyl-N-[2-[2-[[3-(trifluoromethyl)phenyl]sulfonyl]-ethylsulfanyl]-pyridin-3-yl]-butyramide]: the EC50 stood at 71 nM and the Emax stood at 170%.

As to `O=C(CCc1cccs1)Nc1cccnc1SCCS(=O)(=O)c1cccc(C(F)(F)F)c1` [Example 26, 3-Thiophen-2-yl-N-[2-[2-[[3-(trifluoromethyl)phenyl]sulfonyl]-ethylsulfanyl]-pyridin-3-yl]propionamide], the concentration giving a half-maximal response (EC50) was determined as 123 nM and the Emax stood at 82%.

As to `O=C(Nc1cccnc1SCCS(=O)(=O)c1cccc(C(F)(F)F)c1)c1cccs1` [Example 18, N-[2-[2-[[3-(Trifluoromethyl)phenyl]sulfonyl]-ethylsulfanyl]-pyridin-3-yl]-thiophene-2-carboxylic acid amide], a half-maximal response (EC50) required 457 nM and the Emax stood at 43%.

Take `O=C(Nc1cccnc1SCCS(=O)(=O)c1cccc(C(F)(F)F)c1)c1ccc(F)cc1O` [Example 51, 4-Fluoro-2-hydroxy-N-[2-[2-[[3-(trifluoromethyl)phenyl]sulfonyl]-ethylsulfanyl]-pyridin-3-yl]benzamide]: the EC50 came out at 106 nM and the Emax is 32%.

`Cc1ccnc(SCCS(=O)(=O)c2cccc(C(F)(F)F)c2)c1NC(=O)Cc1cccs1` [Example 56, N-[4-Methyl-2-[2-[[3-(trifluoromethyl)phenyl]sulfonyl]-ethylsulfanyl]-pyridin-3-yl]-2-thiophen-2-yl acetamide]: the concentration for a half-maximal effect (EC50) was found to be 349 nM and the Emax is 98.1%.

Turning to `COc1ccc(CC(=O)Nc2cccnc2SCCS(=O)(=O)c2cccc(C(F)(F)F)c2)cc1` [Example 10, 2-(4-Methoxyphenyl)-N-[2-[2-[[3-(trifluoromethyl)phenyl]sulfonyl]-ethylsulfanyl]-pyridin-3-yl]acetamide], the EC50 amounted to 55 nM and the Emax was 74%.

As to `O=C(CC1CC2CCC1C2)Nc1cccnc1SCCS(=O)(=O)c1cccc(C(F)(F)F)c1` (stereo not shown) [Example 62, 2-(5-Bicyclo[2.2.1]heptanyl)-N-[2-[2-[[3-(trifluoromethyl)phenyl]sulfonyl]-ethylsulfanyl]-pyridin-3-yl]acetamide], the concentration giving a half-maximal response (EC50) stood at 23.5 nM and the Emax amounted to 168%.

Regarding `CC(C)(C)CC(=O)Nc1cccnc1SCCSc1ccc(F)cc1` [Example 61, N-[2-[2-[(4-Fluorophenyl)sulfanyl]-ethylsulfanyl]-pyridin-3-yl]-3,3-dimethyl butyramide], a half-maximal effect (EC50) was put at 27.5 nM and the Emax came out at 129%.

Turning to `O=C(CC1CCCCC1)Nc1cccnc1SCCS(=O)(=O)c1ccccc1` [Example 1, N-[2-[2-(Benzenesulfonyl)-ethylsulfanyl]-pyridin-3-yl]-2-cyclohexyl acetamide], a half-maximal response (EC50) required 95 nM and the Emax came out at 172%.

As to `O=C(Nc1cccnc1SCCS(=O)(=O)c1cccc(C(F)(F)F)c1)C1CCCCO1` (stereo not shown) [Example 48, N-[2-[2-[[3-(Trifluoromethyl)phenyl]sulfonyl]-ethylsulfanyl]-pyridin-3-yl]-tetrahydropyrane-2-carboxylic acid amide], it took 174 nM to reach a half-maximal effect (EC50) and the Emax stood at 93%.

In the case of `O=C(CC1CCCCC1)Nc1cccnc1SCCSc1ccccc1` [Example 44, 2-Cyclohexyl-N-[2-(2-phenylsulfanyl-ethylsulfanyl)-pyridin-3-yl]acetamide], the half-maximal effective concentration (EC50) worked out at 153 nM and the Emax stood at 80%.

On to `O=C(Cc1ccc(O)cc1)Nc1cccnc1SCCS(=O)(=O)c1cccc(C(F)(F)F)c1` [Example 13, 2-(4-Hydroxyphenyl)-N-[2-[2-[[3-(trifluoromethyl)phenyl]sulfonyl]-ethylsulfanyl]-pyridin-3-yl]acetamide], for which the Emax came to 46%.

Turning to `O=C(Nc1cccnc1SCCS(=O)(=O)c1cccc(C(F)(F)F)c1)C1CCCCC1` [Example 19, N-[2-[2-[[3-(Trifluoromethyl)phenyl]sulfonyl]-ethylsulfanyl]-pyridin-3-yl]-cyclohexane carboxylic acid amide], the Emax is -43%.

Consider `O=C(Cc1cccs1)Nc1cccnc1SCCSc1cccc(C(F)(F)F)c1` [Example 20, 2-Thiophen-2-yl-N-[2-[2-[[3-(trifluoromethyl)phenyl]sulfanyl]-ethylsulfanyl]-pyridin-3-yl]acetamide], for which the concentration giving a half-maximal response (EC50) came to 180 nM and the Emax came out at 97%.
